Laboratory results as given in patent US6737383B1, “Herbicidal oxadiazolidines” (priority 1999, dated 2004).

Columns and labels:
[1] = tested on: surinam grass; assay: Test B pre/postemergence surinam grass; type: in vivo, Brachiaria decumbens; conditions: for B. signalgrass plant response rating: scale of 0 to 10 where 0 is no effect and 10 is complete control
Outline: (§1)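 Herbicidal effect was estimated by eye on a ten-point control scale after plants spent twelve to sixteen days in a greenhouse following soil or foliar treatment. Foliar sprays targeted plants at one to four leaves; all doses were formulated in a non-phytotoxic solvent with surfactant.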

[2] = tested on: rape; assay: Test B pre/postemergence rape; type: in vivo, Brassica napus; conditions: for Rape plant response rating: scale of 0 to 10 where 0 is no effect and 10 is complete control
Outline: as §1

[3] = tested on: giant foxtail; assay: Test B pre/postemergence giant foxtail; type: in vivo, Setaria faberii; conditions: for Giant foxtail plant response rating: scale of 0 to 10 where 0 is no effect and 10 is complete control
Outline: as §1

[4] = tested on: crabgrass; assay: Test B pre/postemergence crabgrass; type: in vivo, Digitaria sanguinalis; conditions: for Crabgrass plant response rating: scale of 0 to 10 where 0 is no effect and 10 is complete control
Outline: as §1

[5] = tested on: cocklebur; assay: Test B pre/postemergence cocklebur; type: in vivo, Xanthium strumarium; conditions: for Cocklebur plant response rating: scale of 0 to 10 where 0 is no effect and 10 is complete control
Outline: as §1

[6] = tested on: corn; assay: Test B pre/postemergence corn; type: in vivo, Zea mays; conditions: for Corn plant response rating: scale of 0 to 10 where 0 is no effect and 10 is complete control
Outline: as §1

[7] = tested on: purple nutsedge; assay: Test B pre/postemergence purple nutsedge; type: in vivo, Cyperus rotundus; conditions: for Nutsedge plant response rating: scale of 0 to 10 where 0 is no effect and 10 is complete control
Outline: as §1

[8] = tested on: morningglory; assay: Test B pre/postemergence morningglory; type: in vivo, Ipomoea hederacea; conditions: for Morningglory plant response rating: scale of 0 to 10 where 0 is no effect and 10 is complete control
Outline: as §1

[9] = tested on: bedstraw; assay: Test B pre/postemergence bedstraw; type: in vivo, Galium aparine; conditions: Rate 500 g/ha, scale of 0 to 10 where 0 is no effect and 10 is complete control
Outline: as §1

[10] = tested on: velvetleaf; assay: Test B pre/postemergence velvetleaf; type: in vivo, Abutilon theophrasti; conditions: for Velvetleaf plant response rating: scale of 0 to 10 where 0 is no effect and 10 is complete control
Outline: as §1

[11] = tested on: soybean; assay: Test B pre/postemergence soybean; type: in vivo, Glycine max; conditions: for Soybean plant response rating: scale of 0 to 10 where 0 is no effect and 10 is complete control
Outline: as §1

[12] = tested on: wheat; assay: Test B pre/postemergence wheat; type: in vivo, Triticum aestivum; conditions: for Wheat plant response rating: scale of 0 to 10 where 0 is no effect and 10 is complete control
Outline: as §1

[13] = tested on: wild oat; assay: Test B pre/postemergence wild oat; type: in vivo, Avena fatua; conditions: for Wild oats plant response rating: scale of 0 to 10 where 0 is no effect and 10 is complete control
Outline: as §1

[14] = tested on: blackgrass; assay: Test B pre/postemergence blackgrass; type: in vivo, Alopecurus myosuroides; conditions: for Blackgrass plant response rating: scale of 0 to 10 where 0 is no effect and 10 is complete control
Outline: as §1

[15] = tested on: pigweed; assay: Test B pre/postemergence pigweed; type: in vivo, Amaranthus retroflexus; conditions: for Redroot pigweed plant response rating: scale of 0 to 10 where 0 is no effect and 10 is complete control
Outline: as §1

[16] = Postemergence, Rate 125 g/ha, scale 0 to 10, 0 is no effect, 10 is complete control
[17] = Postemergence, Rate 250 g/ha, scale 0 to 10, 0 is no effect, 10 is complete control
[18] = Preemergence, Rate 62 g/ha, scale 0 to 10 (0 no effect, 10 complete control)

## CC(C)N(C(=O)n1oc(=O)n(CCC#N)c1=O)c1ccc(F)cc1 [Compound 388]
[1]; [16]
  Plant response rating, B. signalgrass: 6
[1]; [17]
  Plant response rating, B. signalgrass: 8
[1]; Postemergence, Rate 500 g/ha
  B. signalgrass plant response rating: 8
[1]; [18]
  Plant response rating, B. signalgrass: 0
[1]; Preemergence, Rate 125 g/ha
  B. signalgrass plant response rating (0 to 10 scale, 0 is no effect, 10 is complete control): 2
[1]; Preemergence, Rate 250 g/ha
  B. signalgrass plant response rating: 3
[1]; Preemergence, Rate 500 g/ha
  B. signalgrass plant response rating: 6
[1]; Rate 62 g/ha, Postemergence
  B. signalgrass plant response rating: 1
[2]; [16]
  Plant response rating, Rape: 0
[2]; Postemergence, Rate 500 g/ha
  Rape plant response rating: 0
[2]; [18]
  Plant response rating, Rape: 0
[2]; Preemergence, Rate 125 g/ha
  Rape plant response rating (0 to 10 scale): 0
[2]; Preemergence, Rate 250 g/ha
  Rape plant response rating: 2
[2]; Preemergence, Rate 500 g/ha
  Rape plant response rating: 8
[2]; Rate 62 g/ha, Postemergence
  Rape plant response rating: 0
[3]; [16]
  Plant response rating, Giant foxtail: 8
[3]; [17]
  Plant response rating, Giant foxtail: 8
[3]; Postemergence, Rate 500 g/ha
  Giant foxtail plant response rating: 9
[3]; [18]
  Plant response rating, Giant foxtail: 8
[3]; Preemergence, Rate 125 g/ha
  Giant foxtail plant response rating (0 to 10 scale): 8
[3]; Preemergence, Rate 250 g/ha
  Giant foxtail plant response rating: 10
[3]; Preemergence, Rate 500 g/ha
  Giant foxtail plant response rating: 10
[3]; Rate 62 g/ha, Postemergence
  Giant foxtail plant response rating: 7
[4]; [16]
  Plant response rating, Crabgrass: 4
[4]; [17]
  Plant response rating, Crabgrass: 8
[4]; Postemergence, Rate 500 g/ha
  Crabgrass plant response rating: 9
[4]; [18]
  Plant response rating, Crabgrass: 6
[4]; Preemergence, Rate 125 g/ha
  Crabgrass plant response rating (0 to 10 scale): 8
[4]; Preemergence, Rate 250 g/ha
  Crabgrass plant response rating: 10
[4]; Preemergence, Rate 500 g/ha
  Crabgrass plant response rating: 10
[4]; Rate 62 g/ha, Postemergence
  Crabgrass plant response rating: 4
[5]; [16]
  Plant response rating, Cocklebur: 0
[5]; [17]
  Plant response rating, Cocklebur: 0
[5]; Postemergence, Rate 500 g/ha
  Cocklebur plant response rating: 0
[5]; [18]
  Plant response rating, Cocklebur: 0
[5]; Preemergence, Rate 125 g/ha
  Cocklebur plant response rating (0 to 10 scale): 0
[5]; Preemergence, Rate 250 g/ha
  Cocklebur plant response rating: 0
[5]; Preemergence, Rate 500 g/ha
  Cocklebur plant response rating: 0
[5]; Rate 62 g/ha, Postemergence
  Cocklebur plant response rating: 0
[6]; [16]
  Plant response rating, Corn: 0
[6]; [17]
  Plant response rating, Corn: 0
[6]; Postemergence, Rate 500 g/ha
  Corn plant response rating: 0
[6]; [18]
  Plant response rating, Corn: 0
[6]; Preemergence, Rate 125 g/ha
  Corn plant response rating (0 to 10 scale): 0
[6]; Preemergence, Rate 500 g/ha
  Corn plant response rating: 9
[6]; Rate 62 g/ha, Postemergence
  Corn plant response rating: 0
[7]; [17]
  Plant response rating, Nutsedge: 5
[7]; Postemergence, Rate 500 g/ha
  Nutsedge plant response rating: 6
[7]; [18]
  Plant response rating, Nutsedge: 0
[7]; Preemergence, Rate 125 g/ha
  Nutsedge plant response rating (0 to 10 scale): 0
[7]; Preemergence, Rate 250 g/ha
  Nutsedge plant response rating: 0
[8]; [16]
  Plant response rating, Morningglory: 3
[8]; [17]
  Plant response rating, Morningglory: 4
[8]; Postemergence, Rate 500 g/ha
  Morningglory plant response rating: 5
[8]; [18]
  Plant response rating, Morningglory: 0
[8]; Preemergence, Rate 125 g/ha
  Morningglory plant response rating (0 to 10 scale): 0
[8]; Preemergence, Rate 250 g/ha
  Morningglory plant response rating: 0
[8]; Preemergence, Rate 500 g/ha
  Morningglory plant response rating: 0
[8]; Rate 62 g/ha, Postemergence
  Morningglory plant response rating: 1
[9]; Postemergence
  Bedstraw plant response rating: 6
[9]; Preemergence
  Bedstraw plant response rating: 7
[10]; [16]
  Plant response rating, Velvetleaf: 2
[10]; [17]
  Plant response rating, Velvetleaf: 2
[10]; Postemergence, Rate 500 g/ha
  Velvetleaf plant response rating: 6
[10]; [18]
  Plant response rating, Velvetleaf: 0
[10]; Preemergence, Rate 125 g/ha
  Velvetleaf plant response rating (0 to 10 scale): 2
[10]; Preemergence, Rate 250 g/ha
  Velvetleaf plant response rating: 2
[10]; Preemergence, Rate 500 g/ha
  Velvetleaf plant response rating: 6
[10]; Rate 62 g/ha, Postemergence
  Velvetleaf plant response rating: 0
[11]; [16]
  Plant response rating, Soybean: 1
[11]; [17]
  Plant response rating, Soybean: 1
[11]; Postemergence, Rate 500 g/ha
  Soybean plant response rating: 1
[11]; [18]
  Plant response rating, Soybean: 0
[11]; Preemergence, Rate 125 g/ha
  Soybean plant response rating (0 to 10 scale): 0
[11]; Preemergence, Rate 250 g/ha
  Soybean plant response rating: 0
[11]; Preemergence, Rate 500 g/ha
  Soybean plant response rating: 4
[11]; Rate 62 g/ha, Postemergence
  Soybean plant response rating: 1
[12]; [16]
  Plant response rating, Wheat: 0
[12]; [17]
  Plant response rating, Wheat: 3
[12]; Postemergence, Rate 500 g/ha
  Wheat plant response rating: 8
[12]; [18]
  Plant response rating, Wheat: 0
[12]; Preemergence, Rate 125 g/ha
  Wheat plant response rating (0 to 10 scale): 2
[12]; Preemergence, Rate 250 g/ha
  Wheat plant response rating: 4
[12]; Preemergence, Rate 500 g/ha
  Wheat plant response rating: 8
[12]; Rate 62 g/ha, Postemergence
  Wheat plant response rating: 0
[13]; [16]
  Plant response rating, Wild oats: 0
[13]; [17]
  Plant response rating, Wild oats: 0
[13]; Postemergence, Rate 500 g/ha
  Wild oats plant response rating: 6
[13]; [18]
  Plant response rating, Wild oats: 3
[13]; Preemergence, Rate 125 g/ha
  Wild oats plant response rating (0 to 10 scale): 6
[13]; Preemergence, Rate 250 g/ha
  Wild oats plant response rating: 10
[13]; Preemergence, Rate 500 g/ha
  Wild oats plant response rating: 10
[13]; Rate 62 g/ha, Postemergence
  Wild oats plant response rating: 0
[14]; [16]
  Plant response rating, Blackgrass: 8
[14]; Postemergence, Rate 500 g/ha
  Blackgrass plant response rating: 10
[14]; [18]
  Plant response rating, Blackgrass: 0
[14]; Preemergence, Rate 125 g/ha
  Blackgrass plant response rating (0 to 10 scale): 1
[14]; Preemergence, Rate 250 g/ha
  Blackgrass plant response rating: 5
[14]; Preemergence, Rate 500 g/ha
  Blackgrass plant response rating: 6
[15]; [16]
  Plant response rating, Redroot pigweed: 0
[15]; [17]
  Plant response rating, Redroot pigweed: 0
[15]; Postemergence, Rate 500 g/ha
  Redroot pigweed plant response rating: 3
[15]; [18]
  Plant response rating, Redroot pigweed: 0
[15]; Preemergence, Rate 125 g/ha
  Redroot pigweed plant response rating (0 to 10 scale): 0
[15]; Preemergence, Rate 250 g/ha
  Redroot pigweed plant response rating: 6
[15]; Preemergence, Rate 500 g/ha
  Redroot pigweed plant response rating: 10
[15]; Rate 62 g/ha, Postemergence
  Redroot pigweed plant response rating: 0
